Experimental findings from patent publication US9066961B2, “Medicament for LCT poisoning” (JOHANNES GUTENBERG-UN[…], priority 2006, dated 2015) are described below.

The target in assay [1] is T1, TcdB10463 (Clostridioides difficile, UniProt P18177).
T1 construct: the TcdB10463, purified from culture supernate of C. difficile, used in the experiments; purchased tgcBIOMICS, Mainz, Germany; host or cells: Clostridium difficile VPI10463 culture supernatant
Put plainly: In vitro cleavage assay of TcdB10463 after pre-treatment with protease inhibitor EPNP. Format: biochemical, Clostridium difficile. The protocol: TcdB10463 was purified as described in Example 1 (D) by means of affinity chromatography with the use of the monoclonal antibody 2CV and then pre-treated either (i) with the protease inhibitor EPNP (10 mM 1,2-epoxy-3-(p-nitrophenoxy)-propane) or (ii)—as control—with buffer (50 mM HEPES, 1M NaCl, 1 mM EDTA, pH 8.0) for 60 minutes at room temperature.
Then an in vitro cleavage assay analogous to Example 1 (A) was carried out. The test batches comprised respectively a volume of 10 μl, and contained respectively 50-100 ng unmarked TcdB10463, 100 μM IP6 and 10 mM tris-HCl pH 8.5. Following the incubation (1 h at room temperature), these test batches were subjected to a SDS-PAGE (10%) and the toxins and toxin fragments were then made visible by means of zinc stain.

The target in assay [2] is T1, TcdB10463. The format is biochemical, Clostridium difficile.
A further assay deals with TcdB (Clostridioides difficile, UniProt P18177). As to conditions: for Start of cell rounding after: CHO cells, TcdB pre-treated with polyclonal antiserum (1:100) 1 h at room temperature; for Neutralising effect of the polyclonal antiserum in the CHO test: antiserum of rabbits immunised with the preparation, dilution 1:100. On the procedure:
The CHO test was carried out as follows: In a 96 well microtiter plate, CHO cells (=Chinese hamster ovarial cells) were disseminated (5000 cells/well) and incubated for 16 hours under standard conditions (5% CO2, DMEM F12 supplemented with […] L-glutamins, 5% FCS). The toxins were then introduced to the cells after gradual dilution in growth medium. Dilution stages between 10° and 10^−8 were tested. The cells were incubated for 3 hours under standard conditions. Then the proportion of rounded cells was determined microscopically, by several representative sections of the well being photographed and the elongated and the rounded cells being counted. (See also Moos et al., Meth Enzymol. 2000, 325: 114-125. Reference is made here expressly to the content of this publication).
In order to check the neutralising effect of the polyclonal antiserums, firstly TcdB was pre-treated with polyclonal antiserum (dilution stage 1:100) and incubated for 1 h at room temperature. Then the neutralising effect of the antiserums was checked as described in Example 2 with the aid of the CHO test. The measurement for the neutalising effect of the serums was how long the cells were protected from the cytotoxic effect of the TcdB.

Chain of TcdB (P18177 whole entry): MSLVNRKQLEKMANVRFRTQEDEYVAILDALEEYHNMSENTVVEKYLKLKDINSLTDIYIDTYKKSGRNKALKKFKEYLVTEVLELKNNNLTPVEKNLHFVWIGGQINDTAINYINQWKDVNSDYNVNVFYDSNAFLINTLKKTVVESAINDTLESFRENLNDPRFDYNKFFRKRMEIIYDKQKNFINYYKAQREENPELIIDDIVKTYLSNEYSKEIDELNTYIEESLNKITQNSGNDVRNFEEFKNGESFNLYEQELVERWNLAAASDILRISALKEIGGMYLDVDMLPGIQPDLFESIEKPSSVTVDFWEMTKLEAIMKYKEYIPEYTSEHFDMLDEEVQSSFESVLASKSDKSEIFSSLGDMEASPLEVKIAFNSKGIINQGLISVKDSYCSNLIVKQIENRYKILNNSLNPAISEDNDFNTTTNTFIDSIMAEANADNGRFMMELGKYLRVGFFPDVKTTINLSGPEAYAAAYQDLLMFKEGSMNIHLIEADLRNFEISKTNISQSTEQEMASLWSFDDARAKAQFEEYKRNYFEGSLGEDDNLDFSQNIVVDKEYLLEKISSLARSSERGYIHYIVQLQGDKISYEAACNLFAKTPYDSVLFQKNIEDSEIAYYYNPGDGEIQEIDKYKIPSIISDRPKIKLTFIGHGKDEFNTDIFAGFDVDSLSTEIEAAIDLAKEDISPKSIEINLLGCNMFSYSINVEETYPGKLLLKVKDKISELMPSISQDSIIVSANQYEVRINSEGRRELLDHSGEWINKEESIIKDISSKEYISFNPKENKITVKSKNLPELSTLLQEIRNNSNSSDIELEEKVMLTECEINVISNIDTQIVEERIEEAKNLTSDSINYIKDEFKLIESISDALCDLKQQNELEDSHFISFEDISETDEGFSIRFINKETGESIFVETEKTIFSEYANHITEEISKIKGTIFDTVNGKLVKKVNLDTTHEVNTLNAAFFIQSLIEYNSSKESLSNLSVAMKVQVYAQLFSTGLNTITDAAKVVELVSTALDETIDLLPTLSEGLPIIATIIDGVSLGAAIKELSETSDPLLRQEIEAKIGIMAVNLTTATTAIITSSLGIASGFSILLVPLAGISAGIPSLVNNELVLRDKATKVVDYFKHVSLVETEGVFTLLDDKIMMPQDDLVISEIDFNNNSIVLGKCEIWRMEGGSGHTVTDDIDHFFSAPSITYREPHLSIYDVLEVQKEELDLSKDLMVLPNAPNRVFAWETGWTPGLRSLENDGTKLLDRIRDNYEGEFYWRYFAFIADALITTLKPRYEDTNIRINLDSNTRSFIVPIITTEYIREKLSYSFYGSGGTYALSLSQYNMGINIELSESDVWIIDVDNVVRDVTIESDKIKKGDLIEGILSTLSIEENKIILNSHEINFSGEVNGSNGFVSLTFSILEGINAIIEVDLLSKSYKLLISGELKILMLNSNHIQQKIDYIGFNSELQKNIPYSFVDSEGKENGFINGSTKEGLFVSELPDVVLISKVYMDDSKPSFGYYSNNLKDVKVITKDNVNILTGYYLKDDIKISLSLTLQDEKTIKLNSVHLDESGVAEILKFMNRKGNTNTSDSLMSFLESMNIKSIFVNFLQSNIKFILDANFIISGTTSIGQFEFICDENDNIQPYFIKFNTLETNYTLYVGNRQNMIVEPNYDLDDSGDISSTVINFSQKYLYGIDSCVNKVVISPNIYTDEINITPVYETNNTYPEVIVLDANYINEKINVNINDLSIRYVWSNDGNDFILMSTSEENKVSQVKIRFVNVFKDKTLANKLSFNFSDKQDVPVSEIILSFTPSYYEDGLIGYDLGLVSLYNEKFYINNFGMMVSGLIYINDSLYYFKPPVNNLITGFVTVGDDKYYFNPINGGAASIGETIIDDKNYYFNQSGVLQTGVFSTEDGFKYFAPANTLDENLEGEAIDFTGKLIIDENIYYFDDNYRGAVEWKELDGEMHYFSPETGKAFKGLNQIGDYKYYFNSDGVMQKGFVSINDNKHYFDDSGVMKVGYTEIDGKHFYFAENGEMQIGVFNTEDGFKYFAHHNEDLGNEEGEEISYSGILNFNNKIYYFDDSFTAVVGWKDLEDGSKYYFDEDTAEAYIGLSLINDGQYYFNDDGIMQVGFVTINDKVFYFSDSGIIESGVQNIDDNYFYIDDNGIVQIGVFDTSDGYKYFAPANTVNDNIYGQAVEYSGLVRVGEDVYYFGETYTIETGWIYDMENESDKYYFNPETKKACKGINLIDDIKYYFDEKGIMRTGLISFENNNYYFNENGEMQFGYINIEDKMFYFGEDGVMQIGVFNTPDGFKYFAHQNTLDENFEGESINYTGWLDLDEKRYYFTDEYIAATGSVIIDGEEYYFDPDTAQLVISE
T1 sequence (P18177 whole entry): as above

`O=[N+]([O-])c1ccc(OCC2CO2)cc1` (centres unmarked) [EPNP, 1,2-epoxy-3-(p-nitrophenoxy)-propane]: the “63 kD band in SDS-PAGE” value on TcdB10463 [1] (TcdB10463 pre-treated with EPNP, after incubation with IP6 (FIG. 2, Line 2)) is “only weakly formed”. In addition, the “Proteolytic activity (protease activity) of TcdB10463” value at TcdB10463 [1] (pre-treatment with 10 mM EPNP 60 minutes, then 100 μM IP6 1 h at room temperature) is recorded as “almost completely inhibited”.

With `O=P(O)(O)O[C@H]1[C@H](OP(=O)(O)O)[C@@H](OP(=O)(O)O)[C@H](OP(=O)(O)O)[C@@H](OP(=O)(O)O)[C@H]1OP(=O)(O)O` [IP 1, 2, 3, 4, 5, 6, inositol hexaphosphate], at TcdB10463 [2], the “Cleavage activity (initiator activity) amongst the tested inositol phosphates” value was “strongest cleavage activity”; the “Cleavage of the holotoxin into 63 kDa and 207 kDa fragments” value is on record as “complete cleavage”.

B1: Preparation C: TcdB fragment AS1601-1716 (DSG motif) (protein, UniProt P18177 1601-1716, looked up, fragment)
chain: NIKFILDANFIISGTTSIGQFEFICDENDNIQPYFIKFNTLETNYTLYVGNRQNMIVEPNYDLDDSGDISSTVINFSQKYLYGIDSCVNKVVISPNIYTDEINITPVYETNNTYPE
B1: in the assay with TcdB, the “Start of cell rounding after” value lay within 12 to 15 h and the “Neutralising effect of the polyclonal antiserum in the CHO test” value is recorded as “smaller neutralising effect”.

B2: Preparation D: TcdB fragment AS1508-1601 (part of the inosine-binding motif) (protein, UniProt P18177 1508-1601, looked up, fragment)
chain: YYSNNLKDVKVITKDNVNILTGYYLKDDIKISLSLTLQDEKTIKLNSVHLDESGVAEILKFMNRKGNTNTSDSLMSFLESMNIKSIFVNFLQSN
Regarding B2, in the assay with TcdB, the “Start of cell rounding after” value lay within 9 to 12 h and the “Neutralising effect of the polyclonal antiserum in the CHO test” value is listed as “smaller neutralising effect”.
